The values that follow are results of earlier work, collected in patent US20050142187A1, “Enhanced absorption of modified release dosage forms” (priority 2003, published 2005).

Molecules are shown by their SMILES.

For the compound `CC1(C)S[C@@H]2[C@H](NC(=O)[C@H](N)c3ccc(O)cc3)C(=O)N2[C@H]1C(=O)O` [Amoxicillin, amoxicillin], for the setting “current scientific literature”, the Food effect result is “either a negligible or a negative food effect”. For the same compound, the Window of absorption (known in the art, "or less") was 3 to 4 h.
